Reference: US11952349B2, “Anti-cancer nuclear hormone receptor-targeting compounds” (Nuvation Bio Inc., priority 2019, dated 2024)

Legend:
[1] = molecular target: T1, Progesterone PR-B receptors from human breast carcinoma T47D cells (Homo sapiens, UniProt P06401); test: PR binding assay, [3H]Progesterone; details: Table 8; 0.5 nM [3H]Progesterone
T1 construct: endogenous in cells; host or cells: T47D human breast carcinoma cells (cell supernatant)
T1 sequence (P06401 1-933): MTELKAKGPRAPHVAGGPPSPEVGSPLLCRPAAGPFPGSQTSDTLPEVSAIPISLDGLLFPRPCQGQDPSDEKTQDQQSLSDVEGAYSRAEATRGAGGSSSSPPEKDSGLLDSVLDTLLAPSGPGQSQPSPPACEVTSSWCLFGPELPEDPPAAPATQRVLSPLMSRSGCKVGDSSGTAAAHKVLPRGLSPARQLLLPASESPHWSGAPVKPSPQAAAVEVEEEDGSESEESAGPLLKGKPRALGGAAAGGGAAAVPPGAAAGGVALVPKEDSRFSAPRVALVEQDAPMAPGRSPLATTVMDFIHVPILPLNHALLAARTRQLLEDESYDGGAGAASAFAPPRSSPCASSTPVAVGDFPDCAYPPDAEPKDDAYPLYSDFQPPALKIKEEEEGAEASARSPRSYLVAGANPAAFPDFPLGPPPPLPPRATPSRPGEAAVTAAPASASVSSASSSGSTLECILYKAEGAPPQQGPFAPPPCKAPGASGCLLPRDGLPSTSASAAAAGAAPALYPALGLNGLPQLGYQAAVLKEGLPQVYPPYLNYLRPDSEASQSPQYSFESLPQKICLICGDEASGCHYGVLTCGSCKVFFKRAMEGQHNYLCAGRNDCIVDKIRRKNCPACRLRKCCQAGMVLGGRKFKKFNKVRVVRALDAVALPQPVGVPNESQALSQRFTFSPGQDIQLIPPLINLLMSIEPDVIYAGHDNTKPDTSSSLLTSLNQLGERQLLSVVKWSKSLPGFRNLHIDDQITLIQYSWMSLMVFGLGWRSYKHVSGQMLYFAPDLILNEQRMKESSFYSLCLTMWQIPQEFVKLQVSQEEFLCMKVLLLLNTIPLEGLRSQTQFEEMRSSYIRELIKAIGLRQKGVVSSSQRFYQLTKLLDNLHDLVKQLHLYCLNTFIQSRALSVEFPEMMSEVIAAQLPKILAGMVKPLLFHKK
Description: PR binding assay: Progesterone PR-B receptors from human breast carcinoma T47D cells are used in modified Na2HPO4/NaH2PO4 buffer pH 7.4. Compounds were screened at a range of doses (Top dose 40 nM, 4 fold serial dilution, 8 point dose response) and were dispensed into the assay plate. Supernatant of 1.2×10^5 cells aliquot was added to the assay plate and was incubated with 0.5 nM [^3H]Progesterone for 20 hours at 4° C. Membranes are filtered and washed, the filters are then counted to determine [^3H]Progesterone specifically bound. Binding IC50 was determined as the concentration where 50% inhibition of radioligand binding was observed.

Human recombinant PARP2 = Human recombinant PARP2 (Homo sapiens, UniProt Q9UGN5); test: RBC HotSpot PARP2 assay (radioisotope-based filter binding); format: biochemical; details: Table 9; read-out: PARP2
Description: The following methods are for evaluating the in vitro biology properties of the test articles. • a. RBC HotSpot Poly(ADP-ribose) Polymerases 1 (PARP1) and Poly(ADP-ribose) Polymerases 2 (PARP2) Assays: The assay was conducted at Reaction Biology Corporation (RBC; Malvern, PA). The assay principle is radioisotope-based filter binding assay where incorporation of radioisotope-labeled NAD^+ into the substrate captured on filter is detected after washout free NAD^+. Data were analyzed using Excel and GraphPad Prism software for IC50 curve fits. Each assay was conducted with PJ34 as a positive control. PARP1 assay: Human recombinant PARP1 at a final concentration of 2.5 nM was combined with histone H4 (20 μM) and test articles at various concentrations in reaction buffer (50 mM Tris-HCL, pH 8.0, 50 mM NaCl, 10 mM MgCl2, 1 mM DTT, 1% DMSO, and 20 μg/mL activated DNA). The solution was inoculated for 20 min at room temperature and the reaction initiated by adding [adenylate-^32P]-Nicotinamide Adenine Dinucleotide, ^32P-NAD^+ at a final concentration of 10 μM. After incubation for 2 hrs at room temperature, the reaction mixture was filtered and washed with 0.75% phosphoric acid for radioactivity detection. • ii. PARP2 assay: Human recombinant PARP2 at a final concentration of 2.5 nM was combined with histone H3 (20 μM) and test articles at various concentrations in reaction buffer (50 mM Tris-HCL, pH 8.0, 50 mM NaCl, 10 mM MgCl2, 1 mM DTT, 1% DMSO, and 20 μg/mL activated DNA). The solution was inoculated for 20 min at room temperature and the reaction was initiated by adding [adenylate-^32P]-Nicotinamide Adenine Dinucleotide, ^32P-NAD^+ at a final concentration of 10 μM. After incubation for 2 hrs at room temperature, the reaction mixture was filtered and washed with 0.75% phosphoric acid for radioactivity detection. • b. AR binding assay: AR in LNCaP cytosol was used for determining the binding affinity of test articles and the reference compound—progesterone (Sigma, Cat: E2785, St. Louis, MO). IC50 s were determined using 8 concentrations/compound. Cytosol is plated at 200 μg/well (100 μL) into a 96-well conical polypropylene plate (Agilent, Cat: 5042-1385, Santa Clara, CA) and mixed with 3 μL of test compound. After adding 100 μL of ^3H-methyltrienolone (PerkinElmer, Cat: NET590250UC, San Jose, CA), the plate was sealed and shaken at 300 rpm at 4° C. for 24 hours. Post incubation, 100 μL of radioligand adsorption buffer containing 10 mM Tris-HCl, pH 7.4; 1.5 mM EDTA; 1 mM DTT; 0.25% charcoal; 0.0025% dextran was added to individual wells. Plate was shaken for 15 min at 4° C. followed by centrifugation at 3000 rpm for 30 min at 4° C. 150 μL of supernatant is transferred into scint-tube (PerkinElmer, Cat: 6000192) and mixed with 2 mL of Ultima Gold Cocktail (PerkinElmer, Cat: 6013329). Radioactivity is counted using a TriCarb 2910 TR scintillation counter (PerkinElmer). Inhibition of the radioactivity by test articles was calculated using the equation below: % Inhibition=(1−(Assay well−Average_LC)/(Average_HC−Average_LC))×100%. • IC50 values (Table 6) were calculated and graphed using the model “log(inhibitor) vs. response—Variable slope” included in GraphPad Prism 5 (San Diego, CA). The Ki values were further calculated using the equation below where [L] is the radioligand concentration (1 nM) used in this study. Kd value was 0.332 nM. Ki=IC50/(1+[L]/Kd) • c. AR transactivation: Human AR cloned into a CMV vector backbone is used for the transactivation study. HEK-293 cells are plated at 80,000 cells per well of a 24 well plate in DME+5% csFBS. Twenty four hours later, the cells are transfected using Lipofectamine (Invitrogen, Carlsbad, CA) with 0.25 μg GRE-LUC, 0.01 μg CMV-LUC (renilla luciferase) and 25 ng of the AR in OPTIMEM medium. The cells are treated 24 hrs after transfection with various ligands (10^−12 to 10^−5 M final concentrations) and luciferase assay performed 48 hours after transfection. […]

Sequence of Human recombinant PARP2 (Q9UGN5 whole entry): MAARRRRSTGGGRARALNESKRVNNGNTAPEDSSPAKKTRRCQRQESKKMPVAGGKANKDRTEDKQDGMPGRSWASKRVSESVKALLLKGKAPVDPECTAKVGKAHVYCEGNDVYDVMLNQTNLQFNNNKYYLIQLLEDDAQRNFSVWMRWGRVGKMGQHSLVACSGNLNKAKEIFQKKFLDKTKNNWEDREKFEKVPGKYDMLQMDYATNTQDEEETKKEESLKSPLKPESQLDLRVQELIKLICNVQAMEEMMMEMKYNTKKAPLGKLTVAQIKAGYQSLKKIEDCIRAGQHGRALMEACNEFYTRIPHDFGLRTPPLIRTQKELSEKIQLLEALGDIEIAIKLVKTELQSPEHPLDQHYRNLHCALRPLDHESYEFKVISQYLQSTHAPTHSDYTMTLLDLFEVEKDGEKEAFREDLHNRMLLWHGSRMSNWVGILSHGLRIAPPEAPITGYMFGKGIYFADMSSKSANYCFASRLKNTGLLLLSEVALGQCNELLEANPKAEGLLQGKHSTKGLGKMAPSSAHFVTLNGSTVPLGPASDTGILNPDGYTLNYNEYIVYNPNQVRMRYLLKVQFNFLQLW

IC50 [1]: < 10 nM
IC50 (Human recombinant PARP2): < 1 nM
Compound: CC#C[C@]1(O)CC[C@H]2[C@@H]3CCC4=CC(=O)CCC4=C3[C@@H](c3ccc(N(C)CCCCCC(=O)NCCOCCOCC(=O)N4CCN(C(=O)c5cc(Cc6n[nH]c(=O)c7ccccc67)ccc5F)CC4)cc3)C[C@@]21C [Compound 1429, N-(2-(2-(2-(4-(2-fluoro-5-((4-oxo-3,4-dihydrophthalazin-1-yl)methyl)benzoyl)piperazin-1-yl)-2-oxoethoxy)ethoxy)ethyl)-6-((4-((8S,11R,13S,14S,17S)-17-hydroxy-13-methyl-3-oxo-17-(prop-1-ynyl)-2,3,6,7,8,11,12,13,14,15,16,17-dodecahydro-1H-cyclopenta[a]phenanthren-11-yl)phenyl)(methyl)amino)hexanamide]
